Assay results: patent publication US4277492A, “Novel 4-bis((Phenylmethyl)amino)-benzenesulfonic acids possessing antiviral activity” (priority 1980, dated 1981)
Values after ≈ are worked out from the molar mass of the structure shown.

Experiments:
[1] = test system: rhinovirus type 1A (RV-1A); experiment: Tissue culture antiviral testing, RV-1A (viral cytopathic effect in HeLa cells); assay type: cell-based; conditions: Enterovirus, 48 and 72 hours post-treatment, read-out: Lowest concentration of compound necessary to cause a 50 percent reduction in cytopathic effect, RV-1A
Method: (§1) Monolayered HeLa cells in 16 millimeter (mm) tissue culture dishes were treated with 1 ml of culture medium (Eagles medium supplemented with fetal calf serum) containing compound at 100, 50, 25, 12.5, 6.25 or 0 μg/ml. Culture mediums such as those described herein are more fully described in standard tests, as for example, Kuchler's Biochemical Methods in Cell Culture and Virology, Dowden, Hutchinson and Ross, Inc., Stroudsberg, PA (1977). Immediately following treatment, cells were challenged with 0.05 ml of rhinovirus type 1A (RV-1A), rhinovirus type 2 (RV-2) or coxsackie A21 virus (Cox A21) in culture medium. Cell controls received no virus.
(§2) **Lowest concentration of compound (μg/ml) necessary to cause a 50
(§3) percent reduction in cytopathic effect.

[2] = Cytotoxicity in tissue culture (monolayered HeLa cells); assay type: cell-based; conditions: human, observed at 48 and 72 hours post-treatment, read-out: Cytotoxicity (concentration of compound found to be toxic to the cell)
Method: as §1
*Cytotoxicity figures represent the concentration of compound (μg/ml)
found to be toxic to the cell.

rhinovirus type 2 (RV-2) = experiment: Tissue culture antiviral testing, RV-2 (viral cytopathic effect in HeLa cells); assay type: cell-based; conditions: Enterovirus, 48 and 72 hours post-treatment, read-out: Lowest concentration of compound necessary to cause a 50 percent reduction in cytopathic effect, RV-2
Method: as §1, §2, §3

[3] = test system: coxsackie A21 virus (Cox A21); experiment: Tissue culture antiviral testing, Cox A21 (viral cytopathic effect in HeLa cells); assay type: cell-based; conditions: 48 and 72 hours post-treatment, read-out: Lowest concentration of compound necessary to cause a 50 percent reduction in cytopathic effect, Cox A21
Method: as §1, §2, §3

Cox A21 virus = experiment: Animal testing, mice challenged intraperitoneally with a normally lethal dose of Cox A21 virus; assay type: in vivo, Swiss male mice; conditions: 600 mg/kg PO; at the 95 percent confidence level
Method: The subject compounds were also tested in animals as follows:
Swiss male mice, 10-12 g in weight, were challenged intraperitoneally (IP) with 0.2 ml of a normally lethal dose, i.e., a virus dose sufficient to cause .congruent.80-100 percent mortality in infected animals within 10 days of challenge, of Cox A21 virus in phosphate buffered saline containing 1 percent heat inactivated fetal calf serum. Three hours later, mice were treated orally (PO) with 0.2 ml of compound suspended in 0.5 percent hydroxypropyl methylcellulose (Methocel) or with 0.2 ml of Methocel alone. The test compounds were administered at a 30 milligram/milliliter (mg/ml) concentration, which is a 600 milligram/kilogram (mg/kg) dosage. Mice were counted daily for 7-10 days post-challenge and deaths recorded. A modified Mantel-Haenzel combined chi-square (X^2) procedure was used to determine significant difference between virus control and treated groups. Chi-square values greater than 3.84 are considered significant (95 percent confidence level) in this test.

Compound | EC50 [1] [µg/mL] | EC50 (rhinovirus type 2 (RV-2)) [µg/mL] | EC50 [3] [µg/mL] | MCC [2] [µg/mL] | Antiviral activity in testing with mice (in words) (Cox A21 virus)
O=[N+]([O-])c1cccc(CN(Cc2cccc([N+](=O)[O-])c2)c2ccc(S(=O)(=O)O)cc2)c1 [Example 1, 4-(Bis((3-nitrophenyl)methyl)amino)benzenesulfonic Acid] | 6.25 (≈ 14.1 µM) | > 100 | < 6.25 | 25 | –
O=S(=O)(O)c1ccc(N(Cc2c(Cl)cccc2Cl)Cc2c(Cl)cccc2Cl)cc1 [Example 2, 4-(Bis((2,6-dichlorophenyl)methyl)amino)benzenesulfonic Acid] | 6.25 (≈ 12.7 µM) | 12.5 (≈ 25.4 µM) | < 6.25 | 12.5 | –
O=S(=O)(O)c1ccc(N(Cc2ccc(F)cc2)Cc2ccc(F)cc2)cc1 [Example 3, 4-(Bis((4-fluorophenyl)methyl)amino)benzenesulfonic Acid] | 12.5 (≈ 32.1 µM) | > 100 | < 6.25 | 100 | active antiviral compounds in testing with mice
O=S(=O)(O)c1ccc(N(Cc2ccc(Cl)cc2)Cc2ccc(Cl)cc2)cc1 [Example 5, 4-(Bis((4-chlorophenyl)methyl)amino)benzenesulfonic Acid] | 12.5 (≈ 29.6 µM) | > 100 | < 6.25 | 25 | active antiviral compounds in testing with mice
O=S(=O)(O)c1ccc(N(Cc2cccc(Cl)c2)Cc2cccc(Cl)c2)cc1 [Example 6, 4-(Bis((3-chlorophenyl)methyl)amino)benzenesulfonic Acid] | > 50 | > 100 | < 6.25 | 100 | active antiviral compounds in testing with mice
O=S(=O)(O)c1ccc(N(Cc2ccc(Br)cc2)Cc2ccc(Br)cc2)cc1 [Example 7, 4-(Bis((4-bromophenyl)methyl)amino)benzenesulfonic Acid] | 12.5 (≈ 24.5 µM) | > 100 | < 6.25 | 25 | active antiviral compounds in testing with mice

Now from value to molecule, other results behind:

EC50 [1] [µg/mL] | EC50 (rhinovirus type 2 (RV-2)) [µg/mL] | EC50 [3] [µg/mL] | Compound | MCC [2] [µg/mL] | Antiviral activity in testing with mice (in words) (Cox A21 virus)
50 (≈ 123 µM) | > 100 | < 6.25 | O=S(=O)(O)c1ccc(N(Cc2ccc(F)cc2)Cc2ccc(Cl)cc2)cc1 [Example 4, 4-(((4-Chlorophenyl)methyl)((4-fluorophenyl)-methyl)amino)benzenesulfonic Acid] | 50 | active antiviral compounds in testing with mice
> 100 | > 100 | < 6.25 | O=S(=O)(O)c1ccc(N(Cc2ccccc2F)Cc2ccccc2F)cc1 [Example 8, 4-(Bis((2-fluorophenyl)methyl)amino)benzenesulfonic Acid] | 100 | –
50 (≈ 128 µM) | > 100 | 12.5 (≈ 32.1 µM) | O=S(=O)(O)c1ccc(N(Cc2cccc(F)c2)Cc2cccc(F)c2)cc1 [Example 9, 4-(Bis((3-fluorophenyl)methyl)amino)benzenesulfonic Acid] | 100 | active antiviral compounds in testing with mice
